This assay addresses PD-1/PD-L1 interaction (Homo sapiens (Human), UniProt Q9NZQ7). The experiment in a line: PD1/PD-L1 HTRF assay (Cisbio kit), inhibition of PD-1/PD-L1 interaction. The class given is binding. The conditions noted are these: for inhibition to PD-1/PD-L1 interaction (in words): HTRF assay; for IC50 value / IC50: HTRF, inhibition of PD-1/PD-L1 interaction, 4PL fit. The procedure:
Briefly, 2 μL of the compound, 4 μL from a 25 nM Tagl-PD-L1 protein solution and 4 μL from a 250 nM Tag2-PD1 protein were added into a Cisbio's HTRF 96-well low volume white plate. Then, the plate was incubated for 15 minutes at room temperature. Next, 10 μL from pre-mixed anti-tag detection reagents (5 μL from 1X anti-Tagl-Eu^3+ and 5 μL from 1X anti-Tag2-XL665) were added and the sealed plate was incubated for 2 hours at room temperature. Finally, the plate sealer was removed, and measurements were taken using a HTRF® compatible reader. This protocol used 12 different concentrations of each compound where the maximum and minimum assay concentrations are 10,000 nM and 0.001 nM respectively.
To calculate ΔF/ΔFmax, first the HTRF ratio is calculated as follows;
A multiplication factor of 10000 factor was used to not deal with decimal values that improves data accuracy during calculation. The AR ratio indicating “specific signal” of the compound disrupting the PD-1/PD-L1 interaction was calculated by subtracting background HTRF ratio (negative DMSO control in our work) from each compound (sample) HTRF ratio as follows; ΔR=HTRF ratio (sample)−HTRF ratio (background)
Next, data normalization was done to minimize variation in values on different days, different plate reader instruments, or if the assay was done by different individuals. The normalization was done with respect to the background HTRF ratio and was calculated as follows;
Finally, the ΔF/ΔFmax ratio was calculated to enable comparison of values between multiple experiments.
[formula] wherein ΔF max is taken as the ΔF of the positive DMSO control in the assay.
The IC50 value for PD-1/PD-L1 inhibition was determined by analyzing the log of the concentration—response curves to fit a sigmoid curve with four-parameter logistic (4PL) regression using the GraphPad Prism Software version 8.3.0 for Windows, GraphPad Software, La Jolla California USA, www.graphpad.com. Following equation defines the regression curve.
[formula] wherein X=Log of concentration, Y=Response ΔF/ΔFmax, Top and Bottom=Plateaus in same units as Y, LogIC50=Same log units as X, HillSlope=Slope factor or Hill Slope, Unitless. Using the above equation, LogIC50, is calculated to obtain the IC50 value for each compound. The HTRF_IC50_Data.xlsx data file with all replicates is provided as a Supporting File for use in GraphPad Prism Software to calculate IC50 values.
A general note: In TR-FRET formats the signal depends on donor and acceptor labels being close together.

PD-1/PD-L1 interaction, sequence (Q9NZQ7 19-238): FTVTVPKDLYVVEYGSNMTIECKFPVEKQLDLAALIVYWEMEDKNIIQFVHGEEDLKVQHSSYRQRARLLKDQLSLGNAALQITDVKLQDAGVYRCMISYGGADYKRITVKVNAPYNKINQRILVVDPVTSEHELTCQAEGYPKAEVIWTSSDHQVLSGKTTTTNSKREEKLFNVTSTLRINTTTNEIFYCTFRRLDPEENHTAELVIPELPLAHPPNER

With `COc1cc(OCc2cccc(-c3ccccc3)c2C)cc(OC)c1CNC(CC(F)(F)F)c1ccccc1` (stereo not shown) [Compound 4c, N-(2,6-dimethoxy-4-((2-methyl-[1,1′-biphenyl]-3-yl)methoxy)benzyl)-3,3,3-trifluoro-1-phenylpropan-1-amine], the “inhibition to PD-1/PD-L1 interaction (in words)” value (“inhibition” for short) is “no/poor inhibition” and the IC50 value result is “no inhibition”.

As usually defined, the IC50 is the concentration that inhibits the measured activity by half. Lower therefore signals higher potency. For `COc1cc(OCc2cccc(-c3ccccc3)c2C)cc(OC)c1CN1CCC[C@H](C(=O)O)C1` [Compound 4e, (S)-1-(2,6-dimethoxy-4-((2-methyl-[1,1′-biphenyl]-3-yl)methoxy)benzyl)piperidine-3-carboxylic acid], the “inhibition” value was “no/poor inhibition” and the IC50 is 1260 nM.

As to `C#C[C@]1(O)CC[C@H]2[C@@H]3[C@H](C)CC4=CC(=O)CCC4[C@H]3CC[C@@]21C` (stereo partly drawn) [Compound 4d, (7R,8R,9S,13S,14S,17R)-17-ethynyl-17-hydroxy-7,13-dimethyl-1,2,6,7,8,9,10,11,12,13,14,15,16,17-tetradecahydro-3H-cyclopenta[a]phenanthren-3-one], the “inhibition” value is “no/poor inhibition” and the IC50 value entry is recorded as “no inhibition”.

The compound `COc1cc(OCc2cccc(-c3ccc4c(c3)OCCO4)c2C)cc(OC)c1CN[C@H](CO)C(=O)O` [Compound 4b] showed an IC50 of 340 nM.

The values above are taken from patent US12448359B2, “Compounds with immunomodulatory activity and therapeutic uses thereof” (Purdue Research Foundation, priority 2020, dated 2025).
